Results published in patent US8980908B2, “Non-peptidyl, potent, and selective mu opioid receptor antagonists and their use in treating opioid addiction and opioid induced constipation” (Virginia Commonwealth University, priority 2009, dated 2015).
Several values for one entry are separate records, joined by “and”; a condition that tells them apart may be missing. Equal values may be shown once. Read-outs that look alike come from different tables or passages of the source.

Key:
[1] = system: morphine antinociceptive effect in mice; settings: antagonizing morphine 10 mg/kg; s.c.; cited from earlier work
DOR [2] = biological target: DOR (UniProt P41143); assay: DOR [35S]GTPγS binding assay (Example 5); format: biochemical; design: Ki δ; four experiments; other: three experiments; other: SNC80 5 μM; Ki δ
Procedure: (§1) The KOR full agonist 2-(3,4-dichlorophenyl)-N-methyl-N-[(1R,2R)-2-pyrrolidin-1-ylcyclohexyl]acetamide 17 (U50,488)41 and DOR full agonist 4-[(R)-[(2S,5R)-4-allyl-2,5-dimethylpiperazin-1-yl](3-methoxyphenyl)methyl]-N,N-diethylbenzamide 18 (SNC80)42 were included in the assays as reference compounds for a maximal effect at the KOR and the DOR, respectively.
(§2) The radioligand binding assay and the [^35S]GTPγS binding assay were conducted using monoclonal OR-expressed Chinese hamster ovarian (CHO) cell lines as described previously.^22,29,36,37 Briefly, for the competition binding assay, [^3H]NLX, [^3H]DPN, and [^3H]NTI were used to label the MOR, the KOR, and the DOR, respectively. Aliquots of a membrane protein (30 μg) were incubated with the corresponding radioligand in the presence of different concentrations of the ligand under investigation in TME buffer (50 mM Tris, 3 mM MgCl2, 0.2 mM EGTA, pH 7.7) at 30° C. for 1.5 h. The bound radioactive ligand was separated from the free radioligand by filtration using the Brandel harvester (Biomedical Research & Development Laboratories, MD). […] The potency of the drugs in displacing the specific binding of the radioligand was determined by linear regression analysis of Hill plots. […] The [^35S]GTPγS functional assays were conducted in the same cell membranes used for the receptor binding assays. Membrane proteins (10 μg) were incubated with varying concentrations of compounds, GDP (10 μM) and 0.1 nM [^35S]GTPγS in assay buffer (50 mM Tris, 3 mM MgCl2, 100 mM NaCl, 0.2 mM EGTA, pH 7.7) for 1.5 h at 30° C. Nonspecific binding was determined with 20 μM unlabeled GTPγS.

DOR [3] = biological target: DOR (UniProt P41143); format: binding; design: Ki δ; four experiments; other: three experiments; other: SNC80 5 μM; Ki δ
[4] = system: morphine antinociception in mice; assay: Warm-water tail immersion test, blockade of morphine antinociception (Example 2); format: in vivo, mouse (Swiss Webster); settings: s.c., 5 min before morphine 10 mg/kg s.c.; 56 °C
MOR [5] = biological target: T1, MOR (Mus musculus, UniProt P42866); assay: [35S]GTPγS functional assay (Example 1); format: biochemical; design: expressed in transfected cells; host or cells: CHO (Chinese hamster ovary) cell line, membrane preparation
MOR [6] = biological target: T1, MOR; assay: biochemical; settings: read-out: MOR [35S]GTPγS Binding % Emax of DAMGO
KOR [7] = biological target: T2, KOR (Homo sapiens, UniProt P41145); assay: Competitive radioligand binding, [3H]diprenorphine, OR-expressed CHO membranes (Examples 5 and 6)
T2 construct: expressed in transfected cells; host or cells: CHO (Chinese hamster ovary) cell line, membrane preparation

KOR [8] = biological target: T2, KOR; assay: KOR [35S]GTPγS binding assay (Example 5); format: biochemical; settings: for Emax: read-out: KOR [35S]GTPγS Binding % Emax of U50,488
Procedure: as §1, §2

MOR [9] = biological target: T1, MOR; assay: Competitive radioligand binding, [3H]naloxone, OR-expressed CHO membranes (Examples 5 and 6); design: expressed in transfected cells; host or cells: CHO (Chinese hamster ovary) cell line, membrane preparation; settings: Table 8; Ki ratio
MOR [10] = biological target: T1, MOR; settings: [35S]GTPγS assays
[11] = system: morphine antinociceptive effect in mice; assay: Warm-water tail immersion assay, antagonism of morphine antinociception (Example 5); format: in vivo, mouse (Swiss-Webster); settings: antagonizing morphine 10 mg/kg; s.c.
MOR [12] = biological target: T1, MOR; assay: 35S-GTP[γS]-binding functional assay in MOR expressing CHO cells (Example 2); format: biochemical; design: expressed in transfected cells; host or cells: CHO (Chinese hamster ovary) cell line, membrane preparation
Procedure: Furthermore, these systems express the receptor at high density to provide optimal signal-to-noise ratios in the radioligand and ^35S-GTP[γS] binding assays.
Aliquots of a membrane preparation were incubated with the radioligands in the presence of different concentrations of the drug under investigation at 30° C. for 1 h. […] The potency of the drugs in displacing the specific binding of the radioligand was determined from data using linear regression analysis of Hill plots. The IC50 values will then be determined and corrected to K1 values using the Cheng-Prusoff equation. Functional assays, including ^35S-GTP[γS]-binding assay were conducted in the same cell membranes used for the receptor binding assays.

[13] = biological target: mu, delta and kappa opioid receptors; settings: cited from earlier work
patients with OIC = settings: cited from earlier work
[14] = system: chronic morphine-exposed mice; assay: Opioid withdrawal assays in morphine-pelleted mice; settings: naltrexone 1 mg/kg, counted over 20 minutes
[15] = read-out: DOR [35S]GTPγS Binding EC50; three experiments
[16] = read-out: Ki δ; Table 8 (NAQ analogues); four experiments

For “17-Cyclopropylmethyl-3,14β-dihydroxy-4,5α-epoxy-6α-[(3′-isoquinolyl)acetamido]morphinan [Compound 9]”, the “AD50 values (data taken from Li, et al.)” value [1] is listed as 0.45 (0.27-0.78) mg/kg (95% CL), the “DOR [35S]GTPγS Binding % Emax of SNC80” value (DOR [2]; SNC80 5 μM) is listed as 53.5 ± 5.4% and the EC50 (DOR [2]; three experiments; read-out: DOR [35S]GTPγS Binding EC50) is listed as 98.6 ± 23.7 nM. For the same molecule, the Ki (DOR [3]; Table 8 (NAQ analogues); four experiments; read-out: Ki δ) was 162 ± 15 nM, the Ki (DOR [3]; Table 12 (Example 6); read-out: Ki δ) was 162 ± 15 nM and the “AD50 value for blockade of morphine antinociception” value [4] was 0.456 (0.277 to 0.789) mg/kg (95% C.L.).

In the case of `C[C@@H](O)[C@H](NC(=O)[C@H]1NC(=O)[C@H]([C@@H](C)O)NC(=O)[C@H](CCCNC(=N)N)NC(=O)[C@@H](Cc2c[nH]c3ccccc23)NC(=O)[C@H](Cc2ccc(O)cc2)NC(=O)[C@@H](NC(=O)[C@H](N)Cc2ccccc2)CSSC1(C)C)C(N)=O` [CTAP, D-Phe-Cys-Tyr-D-Trp-Arg-Thr-Pen-Thr-NH2], the “Percent Max of DAMGO” value (MOR [5]; Emax of compound vs Emax of DAMGO (normalized to 100%)) is reported as 0.00%.

With `COc1c(C(=O)N[C@H]2CC[C@@]3(O)[C@H]4Cc5ccc(O)c6c5[C@@]3(CCN4CC3CC3)[C@H]2O6)nc(Cl)c2ccccc12` [Compound 4, 17-Cyclopropylmethyl-3,14β-dihydroxy-4,5α-epoxy-6α-(1-chloro-4-methoxyisoquinoline-3-carboxamido)morphinan] the Emax (MOR [6]) was 51 ± 0.4%, the “DOR [35S]GTPγS Binding % Emax of SNC80” value (DOR [2]; SNC80 5 μM) was 54.8 ± 0.1% and the EC50 (DOR [2]; [15]) was 32.6 ± 5.1 nM. It also gave a Ki (DOR [3]; [16]) of 33.9 ± 0.5 nM, a Ki (KOR [7]) of 22.2 ± 2.1 nM and an EC50 (KOR [8]) of 26.4 ± 3.9 nM. The Emax (KOR [8]) was 7.1 ± 0.5%.

With `O=C(N[C@H]1CC[C@@]2(O)[C@H]3Cc4ccc(O)c5c4[C@@]2(CCN3CC2CC2)[C@H]1O5)c1cc2cc([N+](=O)[O-])ccc2cn1` [Compound 11, 17-Cyclopropylmethyl-3,14β-dihydroxy-4,5α-epoxy-6α-(6-nitroisoquinoline-3-carboxamido)morphinan] the “Selectivity δ/μ” value (MOR [9]) was 16, the “Selectivity κ/μ” value (MOR [9]) was 4.9 and the Emax (MOR [6]) was 12.5 ± 1.4%. For the same molecule, the “Functional Selectivity δ/μ” value (MOR [10]) was 3.4, the “Functional Selectivity κ/μ” value (MOR [10]) was 2.0 and the “DOR [35S]GTPγS Binding % Emax of SNC80” value (DOR [2]; SNC80 5 μM) was 67.7 ± 2.0%. For the same molecule, the EC50 (DOR [2]; [15]) was 108.1 ± 0.8 nM, the Ki (DOR [3]; [16]) was 94.7 ± 1.1 nM and the Ki (KOR [7]) was 27.9 ± 2 nM. For the same molecule, the EC50 (KOR [8]) was 62.6 ± 10.4 nM, the Emax (KOR [8]) was 21.1 ± 0.4% and the AD50 values [11] was 0.92 (0.51-1.67) mg/kg (95% CL).

For `C[C@@H](NC(=O)[C@@H](N)Cc1ccc(O)cc1)C(=O)NCC(=O)N(C)[C@@H](Cc1ccccc1)C(=O)NCCO` [DAMGO, reference compound], the “Emax (% Stim)” value (MOR [12]; n=3) was 366.5 ± 23.0 % Stim, the “Percent Max of DAMGO” value (MOR [12]; normalized to full agonist DAMGO (3 μM)) was 100.0 ± 6.2% and the Emax (MOR [5]; DAMGO reference) was 366±23 % stimulation over basal.

For `C[N@+]1(CC2CC2)CC[C@]23c4c5ccc(O)c4O[C@H]2C(=O)CC[C@@]3(O)[C@H]1C5` [MNTX, methylnaltrexone], the “Ki value ratio delta/mu” value [13] is given as “≈ 24”, the “Ki value ratio kappa/mu” value [13] is given as 10 and the “efficiency to induce SBM” value (patients with OIC; human, in vivo) is given as at most 62%. For the same molecule, the “patients with laxation within 4 hours after the first dose” value (patients with OIC; two major clinical trials, subcutaneous) was 48% and 62%.

With `O=C1CC[C@@]2(O)[C@H]3Cc4ccc(O)c5c4[C@@]2(CCN3CC2CC2)[C@H]1O5` [Naltrexone] the escape jumps [14] was 30.0±12.1, the wet-dog shakes [14] was 14.8±2.2 and the AD50 values [11] was 0.006 (0.003-0.014) mg/kg (95% CL).

In the case of `COc1cccc2c1[C@]13CCN(CC4CC4)[C@H](C2)[C@]1(OC)CCC(=O)C3` [cyprodime], the “Ki value ratio delta/mu” value [13] is given as “≈ 40” and the “Ki value ratio kappa/mu” value [13] is given as “≈ 45”.
